Assay results: ChEMBL document CHEMBL1132851, “Synthesis of the repeating unit of the O-specific polysaccharide of Shigella sonnei and quantitation of its serologic activity” (Bioorg Med Chem Lett, 2000)

System: Shigella sonnei
Assay: Compound was evaluated for the inhibition of hemolysis of Shigella sonneili polysaccharide-sensitized erythrocyte using a hyper-immune rabbit serum
Type: functional, organism-based

SMILES | IC50
CO[C@@H]1OC(C(=O)O)[C@H](O[C@@H]2OC(C)[C@H](N)C(O)[C@@H]2NC(C)=O)C(O)[C@@H]1NC(C)=O (stereo partly drawn) | 3.9 mM
CO[C@@H]1OC(C(=O)O)[C@H](O)C(O)[C@@H]1NC(C)=O (stereo partly drawn) | 6.9 mM
CO[C@@H]1OC(C)[C@H](N)C(O)[C@@H]1NC(C)=O (stereo partly drawn) | 9.8 mM
